Laboratory results taken from the NIST ThermoML archive (doi:10.1016/j.jct.2009.11.003).
Values joined by “and” are separate entries in the source; they are usually repeats but may differ in a detail not shown here. Equal entries are not always repeated. Numbers after ± are expanded uncertainties.

Tests used:
[1] = Crystal, Calculated from knudsen effusion weight loss
[2] = molar enthalpy of vaporization or sublimation; conditions: Crystal, Static calorimetry

Nc1c([N+](=O)[O-])cc(Cl)cc1[N+](=O)[O-] [4-chloro-2,6-dinitroaniline]
Conditions	molar enthalpy [kcal/mol]	vapor or sublimation pressure
[1], 335.12 K	–	7.67e-05 ± 3.9e-06 kPa and 7.72e-05 ± 3.9e-06 kPa and 7.84e-05 ± 3.9e-06 kPa
[1], 338.19 K	–	0.00011 ± 6e-06 kPa and 0.000108 ± 5e-06 kPa and 0.000106 ± 5e-06 kPa
[1], 341.17 K	–	0.00015 ± 8e-06 kPa and 0.000145 ± 7e-06 kPa and 0.000146 ± 7e-06 kPa
[1], 344.17 K	–	0.000202 ± 1e-05 kPa and 0.000201 ± 1e-05 kPa and 0.000207 ± 1e-05 kPa
[1], 347.18 K	–	0.000287 ± 1.4e-05 kPa and 0.000284 ± 1.4e-05 kPa and 0.000277 ± 1.4e-05 kPa
[1], 350.12 K	–	0.000388 ± 1.9e-05 kPa and 0.000386 ± 1.9e-05 kPa
[1], 353.12 K	–	0.00052 ± 2.6e-05 kPa and 0.000532 ± 2.7e-05 kPa and 0.000527 ± 2.6e-05 kPa
[1], 356.17 K	–	0.000715 ± 3.6e-05 kPa and 0.000702 ± 3.5e-05 kPa and 0.00071 ± 3.6e-05 kPa
[1], 359.16 K	–	0.000964 ± 4.8e-05 kPa and 0.000935 ± 4.7e-05 kPa and 0.000922 ± 4.6e-05 kPa
[2], 298.15 K	25.1 ± 0.406	–
[2], 347.1 K	25.02 ± 0.239	–

Nc1c(Cl)cc([N+](=O)[O-])cc1[N+](=O)[O-] [2-chloro-4,6-dinitrobenzenamine]
Conditions	molar enthalpy [kcal/mol]	vapor or sublimation pressure
[1], 358.1 K	–	0.000105 ± 5e-06 kPa and 0.000103 ± 5e-06 kPa and 0.00011 ± 6e-06 kPa
[1], 360.15 K	–	0.00013 ± 7e-06 kPa and 0.000133 ± 7e-06 kPa and 0.000128 ± 6e-06 kPa
[1], 362.16 K	–	0.000164 ± 8e-06 kPa and 0.000161 ± 8e-06 kPa and 0.000173 ± 9e-06 kPa
[1], 364.12 K	–	0.000202 ± 1e-05 kPa and 0.000198 ± 1e-05 kPa and 0.000197 ± 1e-05 kPa
[1], 366.17 K	–	0.000246 ± 1.2e-05 kPa and 0.000248 ± 1.2e-05 kPa and 0.00024 ± 1.2e-05 kPa
[1], 368.17 K	–	0.000302 ± 1.5e-05 kPa and 0.000297 ± 1.5e-05 kPa and 0.000296 ± 1.5e-05 kPa
[1], 370.11 K	–	0.000361 ± 1.8e-05 kPa and 0.000368 ± 1.8e-05 kPa
[1], 372.08 K	–	0.000455 ± 2.3e-05 kPa and 0.00044 ± 2.2e-05 kPa and 0.000426 ± 2.1e-05 kPa
[1], 374.14 K	–	0.00055 ± 2.8e-05 kPa and 0.000536 ± 2.7e-05 kPa
[1], 376.25 K	–	0.000684 ± 3.4e-05 kPa and 0.000662 ± 3.3e-05 kPa and 0.000663 ± 3.3e-05 kPa
[1], 378.14 K	–	0.000816 ± 4.1e-05 kPa and 0.000824 ± 4.1e-05 kPa and 0.000797 ± 4e-05 kPa
[1], 380.16 K	–	0.000996 ± 5e-05 kPa and 0.000971 ± 4.9e-05 kPa and 0.000963 ± 4.8e-05 kPa
[2], 298.15 K	27.5 ± 0.526	–
[2], 369.13 K	27.3 ± 0.311	–
